These results are taken from paper PMC8772772, “Enantioselective Synthesis and Pharmacological Evaluation of Aza-CGP37157–Lipoic Acid Hybrids for the Treatment of Alzheimer’s Disease” (Antioxidants, 2022).

The nature of data set [1]: Cytotoxicity in SH-SY5Y cell line (MTT). Type of data set: cell-based. The note with it: human; SH-SY5Y, 10, 30 and 100 μM, 24 h, MTT; read-out: CC50. The protocol:
SH-SY5Y human neuroblastoma cells were seeded in 96-well clear multi-well plates (6 × 10^4 cells/well). Cells were treated with increasing concentrations of compounds (10, 30 and 100 μM) for 24 h. Thereafter, viability was assessed by the MTT method. Cytotoxic concentration to observe 50% mortality (CC50) values for compounds were interpolated from dose–response curves represented as percentage of cell death vs. concentration of compound, fitted by non-linear regression and data interpolated to value 50.
The tetrazolium ring of MTT can be cleaved by active dehydrogenases to produce a formazan precipitate. At the end of the experiments, MTT (SigmaAldrich, M2003) stock solution was added to each well to achieve a final concentration of 0.5 mg/mL. Cells were incubated for 2 h. Thereafter, culture media was removed, and DMSO was added to each well to dissolve the formazan precipitate. Finally, absorbance was measured in a microplate reader (SPECTROstar nano, BMG Labtech) at 570 nm. Absorbance obtained in basal conditions was considered as 100% cell viability.
In order to evaluate the potential pharmacological profile of new compounds, we first tested the potential neurotoxicity in the neuroblastoma SHSY5Y cell line. Toxicity was evaluated at increasing concentrations (10, 30 and 100 μM), and toxicity was measured as MTT reduction capability. CC50 values were calculated by non-linear regression of curves % survival vs. concentration (Supplementary Materials Figure S2). CGP37157 and previously studied racemic derivatives rac-3a and (rac,R)-3b were included as reference compounds. As previously described, LA is a non-neurotoxic compound at the concentrations texted.

Another data set deals with NRF2. In words: NRF2 induction, luciferase expression in AREc32 cell line. Type of data set: cell-based. The note with it: for CD (concentration required to double the specific luciferase activity): AREc32 cells, 0.3, 3, 10 and 30 μM (LA: 0.1–0.6 mM), mean ± SEM. The procedure: AREc32 cell line was kindly shared by Professor Roland Wolf (University of Dundee, UK). AREc32 cells were maintained in DMEM/glutamax/high glucose (Gibco, 61965-06, Madrid, Spain), supplemented with 1% penicillin–streptomycin (10,000 units) (SigmaAldrich, P4333, Madrid, Spain), geneticin (0.8 mg/mL) (Gibco, 11811-031) and 10% FBS (Gibco, 10270106), at 37 °C in a 5% CO2 air atmosphere. Cells were used from passage 4 to 18, and mycoplasma contamination was tested every 4 weeks. AREc32 cells were seeded in 96-well white plates (2 × 10^4 cells/well) for 24 h. Thereafter, cells were treated with each compound (0.3, 3, 10 and 30 µM) in duplicate for 24 h. Non-treated cells were included as basal luciferase expression and tert-butylhydroquinone (TBHQ, 10 μM) as positive control in each plate. Luciferase expression was evaluated by using the Luciferase Assay System (Promega, E1483, Madrid, Spain) by luminescence in an Orion II microplate luminometer (Berthold, Germany). Luciferase activity increase was normalized to basal conditions considered as 1. CD values (concentration required to double the luciferase activity) were calculated from dose–response curves of luciferase fold induction vs. compound concentration, fitted by non-linear regression and data interpolated to value 2.
To evaluate the influence of both stereogenic centers in the NRF2 induction capacity of aza-CGP37157-LA hybrids, we used the AREc32 cell line model by analyzing luciferase expression upon treatment with NRF2 inducers. AREc32 cells were exposed to increasing concentrations of tested compounds 7a–d (0.3, […], 10 and 30 μM) during 24 h; thereafter, luciferase expression was evaluated by luminescent assay to calculate the corresponding CD value (concentration to double luciferase expression). […] TBHQ was included as a positive control, and CGP37157, S- and R-LA, rac-3a and (rac,R)-3b and precursors derivatives (R-6 and S-6) were included for comparative purposes. […] Once R-LA is reduced, it might activate the phase II antioxidant response by acting as pro-oxidant over key Cys residues at KEAP1 to generate the corresponding lipoyl-cystinyl disulphide.

The test system of another data set is BV2 microglial cells. Description: Nitrite production reduction in LPS-stimulated BV2 microglial cells (Griess). Type of data set: cell-based, mouse. Conditions: BV2 + LPS, 0.3–30 µM. The protocol:
BV2 microglial cells were seeded at 2 × 10^4 cells/well and treated with compounds at increasing concentrations during 24 h in complete culture media. Then, treatments were removed, and BV2 cells were co-incubated with compounds and LPS (100 ng/mL) (O127:B8, SigmaAldrich, L3129) for additional 18 h in culture media supplemented with 1% FBS. Each plate included non-treated cells as basal nitrite production. Thereafter, nitrite production was determined by using the modified Griess assay. In brief, samples (150 μL) were mixed with DAPSONE (75 μL) (SigmaAldrich, A74807) and NEDA (75 μL) (SigmaAldrich, 33461), and the mixture was incubated at room temperature for 5 min. Light absorption was measured at 550 nm in a microplate reader (SPECTROstar nano, BMG Labtech). Basal nitrite production was referred to as 100% of nitrite production, and all data were normalized to the basal condition. Concentration needed to reduce nitrite production to 50% was calculated from graphical representation of percentage of nitrite production vs. compound concentration, and data were fitted by non-linear regression and interpolated to 50%.
Chronic neuroinflammation is considered a key pathological event in the early stages of AD development. Among immune cells present at CNS, microglia is related to host defense and tissue repair. Nonetheless, chronic neuroinflammation induced by an adverse environment of protein aggregates and exacerbated OS induces a neurotoxic activity of microglia that, finally, leads to neuronal death. […] To this end, we selected the BV2 microglial cell model stimulated by lipopolysaccharide (LPS), a TLR4 agonist that activates the pro-inflammatory response. CGP37157, R- and S-LA; analogue compounds rac-3a and (rac,R)-3b; and precursor derivatives 6 were included with comparative and reference purposes. Microglial BV2 cells were treated with increasing concentrations of the corresponding compound (0.3, 3, 10 and 30 µM) for 24 h following a pre-incubation protocol. Thereafter, treatments were exchanged by a combination of the corresponding compound at desired concentration and LPS (100 ng/mL) during 18 h. At the end of this period, nitrite production was evaluated by the Griess method as an indirect measurement of iNOS enzyme expression and BV2 activation.
For orientation: Griess reagent forms a coloured azo dye with nitrite.

The CC50 is the concentration giving 50% cytotoxicity.

In the case of `O=C1CN(CCOC(=O)CCCC[C@@H]2CCSS2)[C@@H](c2ccccc2Cl)c2cc(Cl)ccc2N1` [(R,R)-7d, 2-((R)-7-Chloro-5-(2-chlorophenyl)-2-oxo-1,2,3,5-tetrahydro-4H-benzo[e][1,4]diazepin-4-yl)ethyl 5-((R)-1,2-dithiolan-3-yl)pentanoate], the CC50 at 24 h in data set [1] was greater than 100 µM. Moreover, the “luciferase activity increase at 30 μM” value in the data set with NRF2 (AREc32 cells, 24 h, vs basal) is “significantly increase luciferase activity”. Further, the “CD (concentration required to double the specific luciferase activity)” value (“CD” for short) with NRF2 (24 h) is “over 30 μM”. Moreover, in the data set on BV2 microglial cells, the “anti-inflammatory activity (nitrite production) at the evaluated concentrations” value (from here on “anti-inflammatory activity”) was “no significant activity”.
With `O=C1CN(CCOC(=O)CCCC[C@@H]2CCSS2)[C@H](c2ccccc2Cl)c2cc(Cl)ccc2N1` [(R,S)-7c, 2-((S)-7-Chloro-5-(2-chlorophenyl)-2-oxo-1,2,3,5-tetrahydro-4H-benzo[e][1,4]diazepin-4-yl)ethyl 5-((R)-1,2-dithiolan-3-yl)pentanoate], in data set [1], the CC50 at 24 h was greater than 100 µM. Besides, the “luciferase activity increase at 10 μM” value in the data set on NRF2 (AREc32 cells, 10 μM, 24 h, vs basal) was “significantly increase luciferase activity”. Also, the “luciferase activity increase at 30 μM” value in the data set with NRF2 (AREc32 cells, 24 h, vs basal) is “significantly increase luciferase activity”. For the same molecule, the “CD” value in the data set on NRF2 (24 h) is reported as “over 30 μM”. Also, the “anti-inflammatory activity” value with BV2 microglial cells is given as “no significant activity”.
Take `O=C1CN(CCOC(=O)CCCC[C@H]2CCSS2)[C@@H](c2ccccc2Cl)c2cc(Cl)ccc2N1` [(S,R)-7b, 2-((R)-7-Chloro-5-(2-chlorophenyl)-2-oxo-1,2,3,5-tetrahydro-4H-benzo[e][1,4]diazepin-4-yl)ethyl 5-((S)-1,2-dithiolan-3-yl)pentanoate]: in data set [1], the CC50 at 24 h was greater than 100 µM. For the same molecule, the “CD” value with NRF2 (24 h) amounted to 11.9 ± 1.3 µM. Further, in the data set with NRF2 (ratio of CD values), the “NRF2 induction potency relative to (S,S)-7a” value stood at 2.2 fold.
As for `O=C1CN(CCOC(=O)CCCC[C@H]2CCSS2)[C@H](c2ccccc2Cl)c2cc(Cl)ccc2N1` [(S,S)-7a, 2-((S)-7-Chloro-5-(2-chlorophenyl)-2-oxo-1,2,3,5-tetrahydro-4H-benzo[e][1,4]diazepin-4-yl)ethyl 5-((S)-1,2-dithiolan-3-yl)pentanoate], the CC50 at 24 h in data set [1] is greater than 100 µM. Moreover, in the data set with NRF2 (24 h), the “CD” value is 26.5 ± 1.3 µM. Further, the “anti-inflammatory activity” value in the data set with BV2 microglial cells is reported as “no significant activity”.
